Target: T1, Kv1.5 (Homo sapiens, UniProt P22460)
T1 construct: expressed in transfected cells; host or cells: CHO (ATCC CCL-61), stably transfected; selection with Hygromycin
Test: Whole-cell patch-clamp, Kv1.5 currents in stably transfected CHO cells
Type: cell-based
Conditions: summary statement
Method: [drawing 92] i.e. 4-[5-[3-Chloro-5-(trifluoromethoxy) phenyl]-1-(pyridin-3-yl)-1H-pyrazol-3-yl]-5,6-dihydro-7H-pyrrolo[3,4-d]pyrimidin-7-one, was tested for its effects on human Nav1.5, Cav1.2, Kv1.5, and HCN4 currents recorded from stably transfected CHO cells. The effect of four concentrations of this compound on these currents was investigated.
The whole-cell patch-clamp technique was used to investigate the effect of Compound A on the currents of Nav1.5, Kv1.5, Cav1.2 and HCN4 channels, expressed in CHO cells (ATCC, CCL-61). Compound A was tested at concentrations of 200 nM, 600 nM, 2000 nM and 6000 nM. […]
The 35 mm culture dishes upon which cells were seeded at a density allowing single cells to be recorded were placed on the dish holder of the microscope and continuously perfused (at approximately 1 mL/min) with the bath solution described in section 4.7. […]
As soon as a stable seal could be established outward tail currents were measured upon pulses described in the Table below: […]
Values in Ampere (A) of the peak amplitudes of outward tail currents were generated for each voltage step. […] The recorded current amplitudes at the steady state level of current inhibition were compared to those from control conditions measured in the pre-treatment phase of the same cell. The amount of current block was calculated as percentage of control. […]

T1 sequence (P22460 whole entry): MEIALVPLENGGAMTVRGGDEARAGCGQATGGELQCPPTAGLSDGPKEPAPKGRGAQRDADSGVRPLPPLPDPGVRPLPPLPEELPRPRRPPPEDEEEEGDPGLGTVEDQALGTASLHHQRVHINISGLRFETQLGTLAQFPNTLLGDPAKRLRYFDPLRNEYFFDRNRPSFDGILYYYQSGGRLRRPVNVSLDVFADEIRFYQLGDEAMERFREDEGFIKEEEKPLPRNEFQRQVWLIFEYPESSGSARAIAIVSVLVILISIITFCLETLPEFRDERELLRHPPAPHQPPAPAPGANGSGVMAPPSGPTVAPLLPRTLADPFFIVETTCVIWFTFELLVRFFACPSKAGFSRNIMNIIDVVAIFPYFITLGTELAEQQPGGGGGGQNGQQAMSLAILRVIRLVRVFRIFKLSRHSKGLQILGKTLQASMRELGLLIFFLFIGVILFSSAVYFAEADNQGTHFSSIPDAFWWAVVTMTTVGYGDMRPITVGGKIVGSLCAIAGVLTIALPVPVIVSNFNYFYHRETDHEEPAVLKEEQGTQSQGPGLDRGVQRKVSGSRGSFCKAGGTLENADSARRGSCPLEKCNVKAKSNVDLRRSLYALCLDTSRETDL

O=C1NCc2c1ncnc2-c1cc(-c2cc(Cl)cc(OC(F)(F)F)c2)n(-c2cccnc2)n1 [Compound A, 4-[5-[3-Chloro-5-(trifluoromethoxy)phenyl]-1-(pyridin-3-yl)-1H-pyrazol-3-yl]-5,6-dihydro-7H-pyrrolo[3,4-d]pyrimidin-7-one]
interaction with ion channels of Kav: do not interact with other ion channels of Nav, Kav, and Cav substantially

From patent EP3263567A1, “CARBOXAMIDE-SUBSTITUTED PYRAZOLES AND TRI(HETERO)ARYL-PYRAZOLES FOR USE IN METHODS OF TREATING AND / OR PREVENTING CARDIOVASCULAR DISEASES AND / OR COMORBIDITIES THEREOF” (AiCuris Anti-infective Cures GmbH, priority 2016, dated 2018)
